Our source for the EC50 values is patent publication US20240383922A1, “KRAS Modulating Compounds” (Gilead Sciences, Inc., priority 2023, published 2024).

Test [1] concerns cellular pERK in Kuramochi (WT KRAS) cell-line. Briefly: Cell based pERK assay (HTRF), Kuramochi. The conditions noted are these: Kuramochi (WT KRAS) cells, 2 hours incubation. On the procedure:
(§1) Compounds were tested in a 384-well assay format for their ability to inhibit cellular pERK in Kuramochi (WT KRAS), MIA-PaCa-2 (KRAS-G12C), ASPC-1 (KRAS G12D), and NCI-H441 (KRAS-G12V) cell-lines. Compounds were serially diluted (1:3) in DMSO. On day −1, 80 uL of cells were plated per well in the 384 well tissue-culture plates (Greiner: Cat #781080) to seed 5000 cells per wells of AsPC-1 or 7500 cells of MIA-PaCa-2, NCI-H441, and Kuramochi cell lines in RPMI (Corning: Cat #10-040-CM) with 10% fetal bovine serum (FBS) (HyClone: Cat #SH30071-03) and 1× penicillin-streptomycin-glutamate (PSG) (Corning: Cat #30-009-CI) for […] and Kuramochi cell lines and DMEM (Corning: Cat #15-018-CM) with […] and 1× PSG for MKA-PaCa-2 cell line. The plates were then incubated overnight at 37° C. and 5% CO2. On day 0, 400 nL of compound/well was added into the cell plates and mixed 5 times by pipetting using a Beckmann Biomek FX. The cell plates were then incubated for 2 hours at 37° C. and 5% CO2. HTRF Advanced Phospho-ERK1/2 ([…]) Detection Kits (PerkinElmer: Cat #64AERPEG) were used to prepare the lysis and detection solution according to manufacturer protocol. Following the 2 hour incubation, 70 μL of medium was aspirated from the plates and 10 uL of lysis and detection solution was added to the plates using a Biotek EL406 washer and dispenser. Plates were sealed and stored overnight at room temperature. HTRF ratio (665 nm/615 nm) was read by Envision multimode reader (PerkinElmer) the next day. The TR-FRET ratios were normalized to a positive (saturating concentration of known inhibitor) and negative (DMSO) control and plotted against the log of compound concentration. IC50 values were defined as the compound concentration that causes a […] in normalized signal and were calculated using a sigmoidal dose-response model to generate curve fits.
Background: Time-resolved FRET reads energy transfer from a long-lived donor to a nearby acceptor.

For test [2], the system named is cellular pERK in MIA-PaCa-2 (KRAS-G12C) cell-line. Briefly: Cell based pERK assay (HTRF), MIA-PaCa-2. To be noted: MIA-PaCa-2 (KRAS-G12C) cells, 2 hours incubation, read-out: MIAPaCa2 pERK EC50. As for the experimental part: as §1
Test [3] deals with cellular pERK in NCI-H441 (KRAS-G12V) cell-line. Briefly: Cell based pERK assay (HTRF), NCI-H441. The conditions noted are these: NCI-H441 (KRAS-G12V) cells, 2 hours incubation. On the procedure:
as §1

For test [4], the system named is cellular pERK in ASPC-1 (KRAS G12D) cell-line. Briefly: Cell based pERK assay (HTRF), ASPC-1. The conditions noted are these: ASPC-1 (KRAS G12D) cells, 2 hours incubation. On the procedure: as §1

Read-outs that look alike come from different tables or passages of the source.

Consider `C#Cc1c(F)c(F)cc2cc(N)cc(-c3nc4c5c(nc(OCC67CCCN6CCC7)nc5c3F)N3CCCOC[C@@H]3CC4)c12` [Example 23-3], for which the EC50 (usually the concentration giving half of the maximal effect) in test [1] was 7.54 nM; in test [2] (Homo sapiens) it was 20.3 nM; in test [3] (Homo sapiens), 75.9 nM; in test [4] (Homo sapiens, ASPC1), 105 nM.

Regarding `C#Cc1c(F)ccc2cc(O)cc(-c3nc4c5c(nc(OC[C@@]67CCCN6C[C@H](F)C7)nc5c3F)N3CCCCCC3CC4)c12` (mixture of isomers) [Example 6-20], the EC50 is 9.39 nM in test [1]; 11 nM in test [2] (Homo sapiens); 86.2 nM in test [3] (Homo sapiens); 120 nM in test [4] (Homo sapiens, ASPC1).

Turning to `C#Cc1c(F)ccc2cc(O)cc(-c3nc4c5c(nc(OC[C@@]67CCCN6CC(=C)C7)nc5c3F)N3CCCOCC3CC4)c12` (stereo partly drawn) [Example 22-2], the EC50 stood at 1.63 nM in test [1]; 0.18 nM in test [2] (Homo sapiens); 1.06 nM in test [3] (Homo sapiens); 1.49 nM in test [4] (Homo sapiens, ASPC1).

Take `C#Cc1c(F)c(F)cc2cc(N)cc(-c3nc4c5c(nc(OC[C@@]67CCCN6C[C@H](F)C7)nc5c3F)N3CCCOC[C@@H]3CC4)c12` [Example 23-1, 5-ethynyl-6,7-difluoro-4-((S)-1-fluoro-12-(((2R,7aS)-2-fluorotetrahydro-1H-pyrrolizin-7a(5H)-yl)methoxy)-4,5,5a,6,9,10-hexahydro-8H-7-oxa-3,10a,11,13-tetraazanaphtho[1,8-ab]heptalen-2-yl)naphthalen-2-amine]: the EC50 stood at 0.95 nM in test [1]; 8.03 nM in test [2] (Homo sapiens); 3.13 nM in test [3] (Homo sapiens); 14.4 nM in test [4] (Homo sapiens, ASPC1).

As for `C#Cc1c(F)ccc2cc(O)cc(-c3nc4c5c(nc(OC[C@@]67CCCN6C[C@H](F)C7)nc5c3F)N3CCCC[C@H]3CC4)c12` [Example 1-1, 5-ethynyl-6-fluoro-4-((S)-1-fluoro-11-(((2R,7aS)-2-fluorotetrahydro-1H-pyrrolizin-7a(5H)-yl)methoxy)-5,5a,6,7,8,9-hexahydro-4H-3,9a,10,12-tetraazabenzo[4,5]cyclohepta[1,2,3-de]naphthalen-2-yl)naphthalen-2-ol], the concentration for a half-maximal effect (EC50) in test [1] is 3.89 nM; in test [2] it was 12.6 nM; in test [3], 14.7 nM; in test [4] (read-out: AsPC1 pERK EC50), 25.1 nM.

`C#Cc1c(F)ccc2cc(O)cc(-c3nc4c5c(nc(OC[C@@]67CCCN6C[C@H](F)C7)nc5c3F)N3CC5(COCC3CC4)OCCO5)c12` (stereo partly drawn) [Example 6-16]: the EC50 in test [1] was 78.5 nM; in test [2] (Homo sapiens), 265 nM; in test [3] (Homo sapiens), more than 1000 nM; in test [4] (Homo sapiens, ASPC1), more than 1000 nM.

With `C#Cc1c(F)ccc2cc(O)cc(-c3nc4c5c(nc(O[C@@H](C)[C@@H]6CCCN6C)nc5c3F)N3CCCOC[C@@H]3CC4)c12` [Example 6-24], the EC50 is 48.4 nM in test [1]; 448 nM in test [2] (Homo sapiens); 397 nM in test [3] (Homo sapiens); more than 1000 nM in test [4] (Homo sapiens, ASPC1).

For `C#Cc1c(F)ccc2cc(N)cc(-c3nc4c5c(nc(OC[C@@]67CCCN6[C@H](CF)CC7)nc5c3F)N3CCCOC[C@@H]3CC4)c12` [Example 7-2], the EC50 was found to be 3.44 nM in test [1]; 4.01 nM in test [2] (Homo sapiens); 6.23 nM in test [3] (Homo sapiens); 25.8 nM in test [4] (Homo sapiens, ASPC1).

With `C#Cc1c(F)ccc2cc(N)cc(-c3nc4c5c(nc(OC[C@@]67CCCN6C[C@H](F)C7)nc5c3F)N3CCCOC[C@@H]3C[C@H]4C)c12` [Example 7-9], the EC50 stood at 7.23 nM in test [1]; 9.04 nM in test [2] (Homo sapiens); 16.9 nM in test [3] (Homo sapiens); 54.9 nM in test [4] (Homo sapiens, ASPC1).

Consider `C#Cc1c(F)ccc2cc(O)cc(-c3nc4c5c(nc(OCC67CCCN6CCC7)nc5c3F)N3CCCOC[C@@H]3CC4)c12` [Example 6-11], for which the EC50 was found to be 16.6 nM in test [1]; 1.68 nM in test [2] (Homo sapiens); 8.06 nM in test [3] (Homo sapiens); 24.4 nM in test [4] (Homo sapiens, ASPC1).

Regarding `CCc1c(F)ccc2cc(O)cc(-c3nc4c5c(nc(OC[C@@]67CCCN6C[C@H](F)C7)nc5c3F)N3CCCOCC3CC4)c12` (stereo partly drawn) [Example 8-2], the EC50 in test [1] stood at 8.04 nM; in test [2] (Homo sapiens), 13.8 nM; in test [3] (Homo sapiens), 21 nM; in test [4] (Homo sapiens, ASPC1), 23.6 nM.

Turning to `C#Cc1c(F)ccc2cc(O)cc(-c3nc4c5c(nc(OC[C@@]67CCCN6C[C@@H](F)C7)nc5c3F)N3CCCOC[C@@H]3CC4)c12` [Example 22-1, 5-ethynyl-6-fluoro-4-((S)-1-fluoro-12-(((2S,7aS)-2-fluorotetrahydro-1H-pyrrolizin-7a(5H)-yl)methoxy)-4,5,5a,6,9,10-hexahydro-8H-7-oxa-3,10a,11,13-tetraazanaphtho[1,8-ab]heptalen-2-yl)naphthalen-2-ol], the EC50 is 8.15 nM in test [1]; 102 nM in test [2] (Homo sapiens); 54.8 nM in test [3] (Homo sapiens); 92.1 nM in test [4] (Homo sapiens, ASPC1).

`C#Cc1c(F)ccc2cc(O)cc(-c3nc4c5c(nc(OC[C@@]67CCCN6C[C@H](F)C7)nc5c3F)N3CCCOC[C@@H]3CC4)c12` [Example 6-1, 5-ethynyl-6-fluoro-4-((S)-1-fluoro-12-(((2R,7aS)-2-fluorotetrahydro-1H-pyrrolizin-7a(5H)-yl)methoxy)-4,5,5a,6,9,10-hexahydro-8H-7-oxa-3,10a,11,13-tetraazanaphtho[1,8-ab]heptalen-2-yl)naphthalen-2-ol]: the EC50 in test [1] stood at 1.35 nM; in test [2] (Homo sapiens) it was 0.11 nM; in test [3] (Homo sapiens), 0.42 nM; in test [4] (Homo sapiens, ASPC1) it was 1.27 nM.

Regarding `C#Cc1c(F)ccc2cc(O)cc(-c3nc4c5c(nc(OC[C@@]67CCCN6C[C@H](F)C7)nc5c3F)N3CCCOC[C@@H]3C=C4C)c12` [Example 6-18], the EC50 stood at 1.99 nM in test [1]; 0.28 nM in test [2] (Homo sapiens); 0.56 nM in test [3] (Homo sapiens); 0.61 nM in test [4] (Homo sapiens, ASPC1).

For the compound `C#Cc1c(F)ccc2cccc(-c3nc4c5c(nc(OC[C@@]67CCCN6C[C@H](F)C7)nc5c3F)N3CCCOC[C@@H]3CC4)c12` [Example 6-7], the EC50 in test [1] is 384 nM; in test [2] (Homo sapiens), 328 nM; in test [3] (Homo sapiens) it was 825 nM; in test [4] (Homo sapiens, ASPC1), more than 1000 nM.

On to `C#Cc1c(F)ccc2cc(O)cc(-c3nc4c5c(nc(OC[C@@]67CCCN6C[C@H](F)C7)nc5c3F)N3CCOCC[C@H]3CC4)c12` (single isomer, unassigned) [Example 9-1], for which the EC50 was 46.9 nM in test [1]; 15.8 nM in test [2] (Homo sapiens); 101 nM in test [3] (Homo sapiens); 315 nM in test [4] (Homo sapiens, ASPC1).

As for `C#Cc1c(F)ccc2cc(O)cc(-c3nc4c5c(nc(OC[C@@]67CCCN6C[C@H](F)C7)nc5c3F)N3CCCCC3(C)CC4)c12` (stereo partly drawn) [Example 13-1, 5-ethynyl-6-fluoro-4-(1-fluoro-11-(((2R,7aS)-2-fluorotetrahydro-11H-pyrrolizin-7a(5H)-yl)methoxy)-5a-methyl-5,5a,6,7,8,9-hexahydro-4H-3,9a,10,12-tetraazabenzo[4,5]cyclohepta[1,2,3-de]naphthalen-2-yl)naphthalen-2-ol], the EC50 in test [1] is 117 nM; in test [2], 319 nM; in test [3] it was 380 nM; in test [4] (read-out: AsPC1 pERK EC50), more than 1000 nM.

In the case of `C#Cc1c(F)ccc2cccc(-c3nc4c5c(nc(OCC67CCCN6CCC7)nc5c3F)N3CCCOC[C@@H]3CC4)c12` [Example 6-9], the EC50 is 376 nM in test [1]; 430 nM in test [2] (Homo sapiens); 729 nM in test [3] (Homo sapiens); more than 1000 nM in test [4] (Homo sapiens, ASPC1).
